Results: patent US7118895B2, “Process for producing aglycon by using diglycosidase and flavor-improved food containing the aglycon and converting agent to be used in the process” (Amano Enzyme Inc., priority 2000, dated 2006)

System: Crude diglycosidase
Assay: Examination of substrate concentration in the conversion into isoflavone aglycons by diglycosidase using soybean materials;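 on Decomposition efficiency: ratio of each glycoside/aglycon within its isoflavone family: percent of the isoflavone family total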
Format: biochemical, Penicillium multicolor IAM7153
Settings: for Decomposition efficiency: ratio of each glycoside/aglycon within its isoflavone family: soymilk
Experimental: Into 20 mM acetate buffer of pH 4.0 was suspended 0.1 g, 0.25 g, 0.5 g, 1.0 g, or 1.5 g of each of various soybean materials (roasted soy flour (manufactured by Fuji Shokuryo K.K.), soymilk (manufactured by Gitoh Shokuhin K.K.), defatted soybean (manufactured by Fuji Seiyu K.K.), concentrated soybean protein (manufactured by Fuji Seiyu K.K.)). The pH of the suspension was measured and the liquid volume was adjusted to 4.5 mL while the pH was adjusted to 4.0 with 1N hydrochloric acid. An enzyme solution wherein diglycosidase activity of crude diglycosidase was adjusted to 1.88 AU/mL was added thereto in an amount of 0.5 mL, whereby the final liquid volume was 5.0 mL. Namely, the ratio of the soybean material in the reaction mixture was 2%, 5%, 10%, 20%, or 30% (w/v). The whole was reacted at 55° C. under shaking. To 5 mL of the reaction mixture was added 7 mL of ethanol after 0, 1, 3, and 6 hours of the reaction. After ultrasonication, the mixture was thoroughly mixed. It was subjected to centrifugal separation at 2,000 rpm and room temperature for 5 minutes. Then, […] of the supernatant was placed in a 1.5 mL microtube and was subjected to centrifugal separation at 15,000 rpm and 4° C. for 10 minutes. The supernatant was filtered through a filter and each sample was suitably diluted by a factor of 1 to 6 depending on the substrate concentration. Fifty μL of the diluted solution was analyzed by HLPC (Tables 27 to 38).

[1] = substrate concentration 2%, heat treatment of enzyme no, reaction time 0 h
[2] = substrate concentration 2%, heat treatment of enzyme no, reaction time 1 h
[3] = substrate concentration 2%, heat treatment of enzyme no, reaction time 3 h
[4] = substrate concentration 2%, heat treatment of enzyme no, reaction time 6 h
[5] = substrate concentration 2%, heat treatment of enzyme yes, reaction time 6 h
[6] = substrate concentration 5%, heat treatment of enzyme no, reaction time 0 h
[7] = substrate concentration 5%, heat treatment of enzyme no, reaction time 1 h
[8] = substrate concentration 5%, heat treatment of enzyme no, reaction time 3 h
[9] = substrate concentration 5%, heat treatment of enzyme no, reaction time 6 h
[10] = substrate concentration 5%, heat treatment of enzyme yes, reaction time 6 h
[11] = substrate concentration 10%, heat treatment of enzyme no, reaction time 0 h
[12] = substrate concentration 10%, heat treatment of enzyme no, reaction time 1 h
[13] = substrate concentration 10%, heat treatment of enzyme no, reaction time 3 h
[14] = substrate concentration 10%, heat treatment of enzyme no, reaction time 6 h
[15] = substrate concentration 10%, heat treatment of enzyme yes, reaction time 6 h

CC(=O)OC[C@H]1O[C@@H](Oc2cc(O)c3c(=O)c(-c4ccc(O)cc4)coc3c2)[C@H](O)[C@@H](O)[C@@H]1O [acetyl-genistin]
Decomposition efficiency: ratio of each glycoside/aglycon within its isoflavone family [1]: not detected | Decomposition efficiency: ratio of each glycoside/aglycon within its isoflavone family [2]: not detected | Decomposition efficiency: ratio of each glycoside/aglycon within its isoflavone family [3]: not detected | Decomposition efficiency: ratio of each glycoside/aglycon within its isoflavone family [4]: not detected | Decomposition efficiency: ratio of each glycoside/aglycon within its isoflavone family [5]: not detected | Decomposition efficiency: ratio of each glycoside/aglycon within its isoflavone family [6]: not detected | Decomposition efficiency: ratio of each glycoside/aglycon within its isoflavone family [7]: not detected | Decomposition efficiency: ratio of each glycoside/aglycon within its isoflavone family [8]: not detected | Decomposition efficiency: ratio of each glycoside/aglycon within its isoflavone family [9]: not detected | Decomposition efficiency: ratio of each glycoside/aglycon within its isoflavone family [10]: not detected | Decomposition efficiency: ratio of each glycoside/aglycon within its isoflavone family [11]: 0.5% | Decomposition efficiency: ratio of each glycoside/aglycon within its isoflavone family [12]: not detected | Decomposition efficiency: ratio of each glycoside/aglycon within its isoflavone family [13]: not detected | Decomposition efficiency: ratio of each glycoside/aglycon within its isoflavone family [14]: not detected | Decomposition efficiency: ratio of each glycoside/aglycon within its isoflavone family [15]: 0.5% | Decomposition efficiency: ratio of each glycoside/aglycon within its isoflavone family (substrate concentration 20%, heat treatment of enzyme no, reaction time 0 h): 0.6% | Decomposition efficiency: ratio of each glycoside/aglycon within its isoflavone family (substrate concentration 20%, heat treatment of enzyme no, reaction time 1 h): not detected | Decomposition efficiency: ratio of each glycoside/aglycon within its isoflavone family (substrate concentration 20%, heat treatment of enzyme no, reaction time 3 h): not detected | Decomposition efficiency: ratio of each glycoside/aglycon within its isoflavone family (substrate concentration 20%, heat treatment of enzyme no, reaction time 6 h): not detected | Decomposition efficiency: ratio of each glycoside/aglycon within its isoflavone family (substrate concentration 20%, heat treatment of enzyme yes, reaction time 6 h): 0.6% | Decomposition efficiency: ratio of each glycoside/aglycon within its isoflavone family (substrate concentration 30%, heat treatment of enzyme no, reaction time 0 h): 0.6% | Decomposition efficiency: ratio of each glycoside/aglycon within its isoflavone family (substrate concentration 30%, heat treatment of enzyme no, reaction time 1 h): not detected | Decomposition efficiency: ratio of each glycoside/aglycon within its isoflavone family (substrate concentration 30%, heat treatment of enzyme no, reaction time 3 h): not detected | Decomposition efficiency: ratio of each glycoside/aglycon within its isoflavone family (substrate concentration 30%, heat treatment of enzyme no, reaction time 6 h): not detected | Decomposition efficiency: ratio of each glycoside/aglycon within its isoflavone family (substrate concentration 30%, heat treatment of enzyme yes, reaction time 6 h): 0.6%

O=c1c(-c2ccc(O)cc2)coc2cc(O[C@@H]3O[C@H](CO)[C@@H](O)[C@H](O)[C@H]3O)cc(O)c12 [genisitin]
Decomposition efficiency of genistin family in defatted soybean [1]: 37.7 | Decomposition efficiency of genistin family in defatted soybean [2]: not detected | Decomposition efficiency of genistin family in defatted soybean [3]: not detected | Decomposition efficiency of genistin family in defatted soybean [4]: not detected | Decomposition efficiency of genistin family in defatted soybean [5]: 38.7 | Decomposition efficiency of genistin family in defatted soybean [6]: 40.0 | Decomposition efficiency of genistin family in defatted soybean [7]: not detected | Decomposition efficiency of genistin family in defatted soybean [8]: not detected | Decomposition efficiency of genistin family in defatted soybean [9]: not detected | Decomposition efficiency of genistin family in defatted soybean [10]: 41.8 | Decomposition efficiency of genistin family in defatted soybean [11]: 42.4 | Decomposition efficiency of genistin family in defatted soybean [12]: not detected | Decomposition efficiency of genistin family in defatted soybean [13]: not detected | Decomposition efficiency of genistin family in defatted soybean [14]: not detected | Decomposition efficiency of genistin family in defatted soybean [15]: 44.3
